Experiment: Photoreaction test with cholecalciferol (photostability chamber)
Type: physicochemical
Conditions: photostability chamber, 1,200,000 LUX, 18.44 hours
Description: Cholecalciferol (vitamin D3) also has poor physiochemical stability and may not ensure stability with time. Generally, cholecalciferol is known to be susceptible to moisture, light, and heat. […] The amount of trans-vitamin D3 (after storage in a photostability chamber under 1,200,000 LUX for 18.44 hours) was increased by about 1.2% with respect to initial level, while the amount of vitamin D3 was reduced by about 10%.

## C=C1CC[C@H](O)C/C1=C/C=C1\CCC[C@]2(C)[C@@H]([C@H](C)CCCC(C)C)CC[C@@H]12 [cholecalciferol, Cholecalciferol]
  increase of the amount of trans-vitamin D3 with respect to initial level: about 1.2%
  reduction of the amount of vitamin D3: about 10%

From patent publication US20170368049A1 (HANMI PHARM. CO., LTD., priority 2015, published 2017)
